Source: patent US20160235642A1, “Melanin Binding Agents for Targeted Topical Delivery” (AVON PRODUCTS, INC, priority 2013, published 2016)

Tests used:
[1] = Binding of compounds to free synthetic melanin (Example 3); conditions: free synthetic melanin 50 μg/mL, compound 10 μM in PBS, 37° C., 1 hour; relative percentage of compound bound, measured spectrophotometrically from compound left in solution
Procedure: Free synthetic melanin was incubated with compounds of interest in order to determine relative binding affinity of various compounds of interest to melanin. Free synthetic melanin (50 μg/mL) and compounds of interest at 10 μM concentration in PBS were incubated at 37° C. for 1 hour. After 1 hour, the synthetic melanin was removed from the solution, and the relative concentrations of the compound left in solution (i.e., not bound to the melanin) were measured spectrophometrically.

[2] = test system: Melanoderm Mel-B (high concentration of melanin) and Melanoderm Mel-C (low concentration of melanin) tissue models; test: Affinity of pyridinium compounds for melanin in Melanoderm tissue models (Example 2); type: cell-based
Source text: Affinity of pyridinium compounds for melanin in Melanoderm Mel-B (high concentration of melanin) and Melanoderm Mel-C (low concentration of melanin) tissue models.
Melanoderm Mel-B (high concentration of melanin) and Melanoderm Mel-C (low concentration of melanin) tissue models were used to determine the affinity of pyridinium compounds for melanin. Chloroquine served as a positive control and caffeic acid was a negative control for melanin binding. […] Test materials were topically applied at 0, 24 and 48 hours and tested at 1 μM and 10 μM concentration in water. Media samples were collected at 6, 24, 48, and 72 hours and tissue were lysed at 72 hours.

Row | Structure (SMILES) | % Melanin Bound [1] | also measured
1 | Cl.c1ccncc1 [Pyridine hydrochloride] | 0% | 
2 | OCCc1c[nH]c2ccccc12 [3-(2-Hydroxyethyl)indole] | 6.5% | 
3 | Cn1c(=O)c2c(ncn2C)n(C)c1=O [Caffeine] | 4.4% | 
4 | Oc1ccccc1O [Pyrocatechol] | 21.5% | 
5 | CCCC[n+]1ccccc1.[Cl-] [1-Butylpyridinium chloride] | 0% | 
6 | OCC[n+]1ccccc1.[Cl-] [1-(2-Hydroxyethyl) pyridinium chloride] | 0% | 
7 | CCCCCCCCCCCC[n+]1ccc(N)cc1.[Cl-] [4-Amino-1-dodecyl-pyridinium chloride] | 49.5% | melanin binding compared with the positive control (chloroquine) ([2]; Melanoderm tissue models, 1 μM and 10 μM): outperformed the positive control; melanin binding, 10 μM compared to 1 μM concentration ([2]; Melanoderm tissue models, 10 μM versus 1 μM): increased melanin binding; binding affinity for the 3-D tissue samples ([2]; topically applied at 0, 24 and 48 hours, 1 μM and 10 μM in water, media at 6, 24, 48, 72 hours, tissue lysed at 72 hours, FIG. 1): strong binding affinity
8 | c1ccc2[nH]ccc2c1 [Indole] | 7.3% | 

Further lines, with some results ahead:

Row | % Melanin Bound [1] | Structure (SMILES) | also measured
9 | 5.1% | Nc1cnc2ccccc2c1 [3-Aminoquinoline] | 
10 | 0% | NC(=O)c1cccnc1 [Niacinamide] | 
11 | Not detected | O=CC[C@@H](O)[C@H](O)[C@H](O)CO [Deoxy-d-glucose] | 
12 | 1.5% | O=C(O)CCSCCC(=O)O [Thiodipropanoic Acid] | 
13 | Not detected | CCCCCCCCCCCCOC(=O)CCSCCC(=O)OCCCCCCCCCCCC [Dilauryl Thiodipropionate] | 
14 | Not detected | CC1COC(=O)O1 (stereo not shown) [Propylene Carbonate] | 
15 | 0% | O=C(O)c1cc(O)c(O)c(O)c1 [Gallic acid] | 
16 | 99.7% | O=c1c(O)c(-c2ccc(O)c(O)c2)oc2cc(O)cc(O)c12 [Quercetin] | 
17 | 48.6% | CCN(CC)CCCC(C)Nc1ccnc2cc(Cl)ccc12 (stereo not shown) [Chloroquine] | 
18 | Not detected | Oc1cccc(O)c1O [Pyrogallol] | 
19 | 0% | O=C(O)/C=C/c1ccc(O)c(O)c1 [Caffeic acid] | 
